16 substances from US6835382B2, “Ii peptide therapeutics to enhance antigen presentation” (University of Massachusetts, priority 1996, dated 2004) can be followed below.

Positions of bridges follow the written chain, without caps; N, C: chain ends. Non-standard residues stand in square brackets, D forms with d. No end group written: not given here. hArg = N=C(N)NCCCC[C@H](N)C(=O)O; Cit = NC(=O)NCCC[C@H](N)C(=O)O

The target of one test is T1, murine E^d MHC class II allele (Mus musculus, UniProt P01904+P01915).
T1 sequence (P01904 26-255): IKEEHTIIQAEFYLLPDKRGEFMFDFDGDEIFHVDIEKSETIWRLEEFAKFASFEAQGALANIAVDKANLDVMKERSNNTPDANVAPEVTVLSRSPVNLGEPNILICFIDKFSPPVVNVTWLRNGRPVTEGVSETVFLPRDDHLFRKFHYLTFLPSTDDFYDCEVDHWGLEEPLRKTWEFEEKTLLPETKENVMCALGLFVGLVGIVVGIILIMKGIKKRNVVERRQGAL
T1 sequence (P01915 27-264 limits assumed): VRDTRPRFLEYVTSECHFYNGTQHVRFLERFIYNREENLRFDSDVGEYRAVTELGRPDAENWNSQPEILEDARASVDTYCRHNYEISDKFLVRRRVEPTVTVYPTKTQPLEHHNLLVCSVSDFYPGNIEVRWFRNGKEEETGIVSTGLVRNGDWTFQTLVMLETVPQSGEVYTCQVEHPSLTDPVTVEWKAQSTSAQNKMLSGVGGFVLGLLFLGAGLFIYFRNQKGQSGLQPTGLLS
As to the kind of experiment: antigenic peptide prepulse assay, E^d allele (fixed APC prepulsed with HEL106-116). The format is cell-based. Also on record: The A20 and CH27 B cell lymphoma lines express H-2^d and H-2^k alleles, respectively; endogenous in cells; host or cells: A20 B cell lymphoma (mitomycin C-treated or paraformaldehyde-fixed). The following applies: Table 25; AE peptide 64 μM; prepulse 24 μM antigenic peptide; supernatant 1:4.
Regarding Ac-LRMKNPF-NH2 [AE350], the “Activity in antigenic peptide prepulse assay, E^d (baseline = 1.00)” value is listed as 0.82.
On the same count and under the same terms, next, Ac-A[Cit]NKNPK-NH2 [AE351]: 0.42; Ac-LR Orn K HArg PK-NH2 [AE340]: 0.10.

Still in this test, the particulars now being: Table 26; AE peptide 64 μM; prepulse 24 μM antigenic peptide; supernatant 1:2.
For the substance Ac-LR HArg KYP Cit-NH2 [AE366], the “Activity in antigenic peptide prepulse assay, E^d (baseline = 1.0)” value (shortened to “Activity … (baseline = 1.0)”) is 0.44.
The same measure, in the same setting: next, Ac-FK HArg MYP Cit-NH2 [AE371]: 0.90.
With Ac-LRMMYP[Cit]-NH2 [AE367], the “Activity … (baseline = 1.0)” value is recorded as 1.10.
Still for that read-out and setting: in the case of Ac-LK HArg KYPK-NH2 [AE363] it was 0.60.
On the same count and under the same terms, in the case of Ac-L[hArg]MKYPK-NH2 [AE360] it was 0.91; in that of Ac-L[hArg]LKYPK-NH2 [AE361], 0.83.
On the same count and under the same terms, in the case of Ac-LRMKYPN-NH2 [AE370] it was 0.74; in that of Ac-LRMKYP[Cit]-NH2 [AE364], 0.34.
Take Ac-LR HArg MYPK-NH2 [AE365]: the “Activity … (baseline = 1.0)” value is 0.70.
Same read-out and setting: in the case of Ac-LKMKYPK-NH2 [AE362] it was 0.76.
In the case of Ac-LRLKYPN-NH2 [AE368], the “Activity … (baseline = 1.0)” value is given as 0.55.

The test is the same for the next values; noted with them: Table 28; AE peptide 64 μM; prepulse 24 μM antigenic peptide; supernatant 1:4.
In the case of “cyclic LRMKLPK (bridge (positions not given here); also: cyclic, ring type not given here) [AE381, “head-to-tail” cyclization from the amino-terminus to the carboxyl-terminus of AE114]”, the “Activity … (baseline = 1.0)” value is on record as 0.19.
On to Ac-LRMKLPK (lactam 4-C) [AE382], for which the “Activity … (baseline = 1.0)” value turned out to be 0.52.
